Assay results: US9447078B2, “Substituted heterocyclic compounds for disease treatment” (Acucela Inc., priority 2012, dated 2016)

Biological target: T1, isomerase (Mus musculus, UniProt Q91ZQ5)
T1 construct: from tissue; host or cells: eyes of living CD-1 (and Balb/c) mice, endogenous protein
T1 sequence (Q91ZQ5 1-533): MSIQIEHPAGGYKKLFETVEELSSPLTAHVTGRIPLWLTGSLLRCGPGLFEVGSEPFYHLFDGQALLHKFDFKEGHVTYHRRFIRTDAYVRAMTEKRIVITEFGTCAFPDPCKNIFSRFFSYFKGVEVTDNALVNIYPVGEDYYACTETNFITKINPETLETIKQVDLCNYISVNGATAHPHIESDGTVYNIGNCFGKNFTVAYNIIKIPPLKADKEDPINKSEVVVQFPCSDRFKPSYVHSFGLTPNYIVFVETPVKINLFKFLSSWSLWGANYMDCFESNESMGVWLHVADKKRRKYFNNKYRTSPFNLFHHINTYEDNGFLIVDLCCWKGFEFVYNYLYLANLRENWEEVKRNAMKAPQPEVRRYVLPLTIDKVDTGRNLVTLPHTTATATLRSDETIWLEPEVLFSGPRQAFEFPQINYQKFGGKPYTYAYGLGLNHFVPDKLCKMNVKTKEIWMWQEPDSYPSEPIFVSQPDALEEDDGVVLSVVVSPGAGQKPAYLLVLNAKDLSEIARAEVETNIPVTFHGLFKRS
Assay: In vivo murine isomerase assay (recovery of 11-cis-retinal after photobleaching)
Conditions: po, mice, oral gavage
Method: The capability of compounds described herein to inhibit isomerase was determined by an in vivo murine isomerase assay. Brief exposure of the eye to intense light (“photobleaching” of the visual pigment or simply “bleaching”) is known to photo-isomerize almost all 11-cis-retinal in the retina. The recovery of 11-cis-retinal after bleaching was used to estimate the activity of isomerase in vivo. Delayed recovery, as represented by lower 11-cis-retinal oxime levels, indicates inhibition of isomerization reaction. Procedures were performed essentially as described by Golczak et al., Proc. Natl. Acad. Sci. USA 102:8162-67 (2005). See also Deigner et al., Science, 244: 968-71 (1989); Gollapalli et al., Biochim Biophys Acta. 1651: 93-101 (2003); Parish, et al., Proc. Natl. Acad. Sci. USA, 14609-13 (1998); Radu, et al., Proc Natl Acad Sci USA 101: 5928-33 (2004).
Six-week old dark-adapted CD-1 (albino) male mice were orally gavaged with compound (0.03-3 mg/kg) dissolved in 100 μl corn oil containing 10% ethanol (five animals per group). After 2-24 hours in the dark, the mice were exposed to photobleaching of 5,000 lux of white light for 10 minutes. The mice were allowed to recover 2 hours in the dark. The animals were then sacrificed by carbon dioxide inhalation. Retinoids were extracted from the eye and the regeneration of 11-cis-retinal was assessed at various time intervals.
All steps were performed in darkness with minimal redlight illumination (low light darkroom lights and red-filtered flashlights for spot illumination as needed) (see, e.g., Maeda et al., J. Neurochem 85:944-956, 2003; Van Hooser et al., J Biol Chem 277:19173-82, 2002). After the mice were sacrificed, the eyes were immediately removed and placed in liquid nitrogen for storage.
The eyes were placed in 500 μL of bis-tris propane buffer (10 mM, pH ˜7.3) and 20 μL of 0.8M hydroxile amine (pH˜7.3). The eyes were cut up into small pieces with small iris scissors and then thoroughly homogenized at 30000 rpm with a mechanical homogenizer (Polytron PT 1300 D) in the tube until no visible tissue remained. 500 μL of methanol and 500 μL of heptane were added to each tube. The tubes were attached to a vortexer so that the contents were mixed thoroughly for 15 minutes in room temperature. The organic phase was separated from the aqueous phase by centrifugation for 10 min at 13K rpm, 4° C. 240 μL of the solution from the top layer (organic phase) was removed and transferred to clean 300 μl glass inserts in HPLC vials using glass pipette and the vials were crimped shut tightly.
The samples were analyzed on an Agilent 1100 HPLC system with normal phase column: SILICA (Beckman Coutlier, dp 5 μm, […]). […] Loading volume for each sample was 100 μl; detection wavelength is 360 nm. The area under the curve for 11-cis retinal oxime was calculated by Agilent Chemstation software and was recorded manually. Data processing was performed using Prizm software.
Positive control mice (no compound administered) were sacrificed fully dark-adapted and the eye retinoids analyzed. Light (bleached) control mice (no compound administered) were sacrificed and retinoids isolated and analyzed immediately after light treatment.
A time course study was performed to determine the isomerase inhibitory activity of the test compound. Male Balb/c mice (4/group) receive test compound orally by gavage. The animals were then “photo-bleached” (5000 Lux white light for 10 minutes) at 2, 4, 8, 16 and 24 hours after dosing, and returned to darkness to allow recovery of the 11-cis-retinal content of the eyes. Mice were sacrificed 2 hours after bleaching, eyes were enucleated, and retinoid content was analyzed by HPLC.
Recovery control mice (vehicle-only treated) were light-treated and left to recover for 2 hours in the dark before sacrifice and analysis. Light control mice (vehicle only treated) were sacrificed for analysis immediately after photo-bleaching.

Row | inhibition at 1 mg/kg (Time 2 hour) | inhibition at 1 mg/kg (Time 4 hour) | Structure (SMILES) | also measured
1 | 68.9 ± 6.5% | 37.7 ± 14.9% | NCC[C@@H](O)c1cccc(OCC2CCCCC2)n1 [Example 6, (R)-3-Amino-1-(6-(cyclohexylmethoxy)pyridin-2-yl)propan-1-ol] | inhibition at 3 mg/kg (Time 2 hour): 93.2 ± 0.9%; inhibition at 3 mg/kg (Time 4 hour): 85.5 ± 2.9%; inhibition at 3 mg/kg (Time 6 hour): 62.3 ± 3.8%; inhibition at 3 mg/kg (Time 8 hour): 30.8 ± 9.9%; inhibition at 3 mg/kg (Time 16 hour): 0%; inhibition at 3 mg/kg (Time 24 hour): 0%
2 | 0% |  | NCC[C@@H](O)c1ccc(OCC2CCCCC2)s1 [Example 5, (R)-3-Amino-1-(5-(cyclohexylmethoxy)thiophen-2-yl)propan-1-ol] | 
3 | 29.3 ± 4.3% |  | NCCC(O)c1cccc(CCC2CCCCC2)n1 (centres unmarked) [Example 4, 3-Amino-1-(6-(2-cyclohexylethyl)pyridin-2-yl)propan-1-ol] | 
4 | 8.6 ± 4.2% |  | NCCC(O)c1cc(C#CC2(O)CCCCC2)cs1 (centres unmarked) [Example 9, 1-((5-(3-Amino-1-hydroxypropyl)thiophen-3-yl)ethynyl)cyclohexanol] | 
5 | 0% |  | NCCC(O)c1cccc(/C=C/C2CCCCC2)n1 (centres unmarked) [Example 3, (E)-3-Amino-1-(6-(2-cyclohexylvinyl)pyridin-2-yl)propan-1-ol] | 
6 | 0% |  | NCCC(O)c1cc(OCC2CCCCC2)ccn1 (centres unmarked) [Example 12, 3-Amino-1-(4-(cyclohexylmethoxy)pyridin-2-yl)propan-1-ol] | 
7 | 0% | 0% | NCCC(O)c1ccc(OCC2CCCCC2)s1 (centres unmarked) [Example 1, 3-Amino-1-(5-(cyclohexylmethoxy)thiophen-2-yl)propan-1-ol] | 
8 |  | 98.2 ± 2.3% | CCCC(CCC)COc1cccc([C@H](O)CCN)n1 [Example 19, (R)-3-Amino-1-(6-((2-propylpentyl)oxy)pyridin-2-yl)propan-1-ol] | inhibition at 1 mg/kg (Time 8 hour): 90.7 ± 3.3%
